Reference: article PMC7707092, “Discovery and characterization of ORM‐11372, a novel inhibitor of the sodium‐calcium exchanger with positive inotropic activity” (British Journal of Pharmacology, 2020)

System: healthy rats
Assay: In vivo haemodynamics in healthy rats (supplement)
Set-up: species or system rat
Description: In vivo haemodynamics in healthy rats
Experimental Animals and General Study Protocol
Rat was selected to the study as it is the most widely used rodent species in the toxicology studies performed for the small molecules during the drug development. […]
All animal experiments were made according to European Community Guidelines for the use of experimental animals and approved by Finnish National Animal Experiment Board. All studies complied with the ARRIVE guidelines, (NC3Rs Reporting Guidelines Working Group, 2010).
Specific pathogen free animals were housed in half -barrier rooms where special protecting clothing for personnel was required. Animal rooms were cleaned regularly 3 times per week and cages and bottles were […]
changed regular intervals once a week. Temperature was maintained at 22 ± 2°C and humidity at 55 ± 15%.
Light-dark cycle was lights on from 06.00 to 20.00h.
Male Sprague-Dawley rats (Harlan, Netherlands B.V.) were housed in polycarbonate cages (Makrolon® IV with stainless steel wire mesh lids). Maximally 5 rats were housed per cage with aspen chip bedding (Tapvei Ky, Kaavi, Finland). Rats had free access to water (twice filtered, Espoon Vesi) and rodent diet (SDS RM1
(P) SQC pelleted diet, Special Diet Services Ltd, Witham, England). Acclimation period before experiments was at least 5 days. Healthy 10-12 weeks aged weighing 300-400 g rats were randomized to ORM-11372, dobutamine or vehicle group.
At the end of the haemodynamic experiments, rats were terminated with an overdose of pentobarbital.
Anesthesia and ventilation
Rats were anaesthetised with isoflurane (2.25-2.5 %, Baxter) in carbogen (95 % O2 and 5 % CO2) and nitrous oxide (1:1) using a small rodent ventilator (Ugo Basile 7025, ~10 ml/kg, 60 strokes/min). The rats were infused with 0.9 % NaCl in […] at the stabilization and baseline level. Animals were placed on a heating table (+38°C). Tracheas were cannulated.
Systemic blood (SP) and left ventricular pressures (LVP) were measured with pressure transducers (BP:
Isotec, Hugo Sachs Elektronic, Germany; LVP: Mikro-Tip transducer SPR-249, Millar Instruments, USA). The signal was amplified (DC-bridge amplifier type 660, Hugo Sachs Elektronik, Germany), digitised (I/O connector block type SCB-68, National Instruments, USA), recorded and analysed (IHME 1.0.9, Fision Ltd, Finland). Left ventricular inotropic effect (LV +dP/dtmax) and relaxation (LV -dP/dtmin) and heart rate (HR) were analysed from LVP signal.
Blood sampling for the evaluation of plasma levels of the drug
At the end of each infusion, the blood samples (300-500 µl) were taken into chilled EDTA polypropylene tube (CapiJect®, Terumo) and centrifuged (4000 rpm, 10 min, at 4°C). Plasma was immediately frozen in polypropylene tubes and stored at –20°C. ORM-11372 and dobutamine were extracted from plasma samples using a liquid–liquid extraction and analysed using liquid chromatography–tandem mass spectrometry (Agilent Technologies series 1100 liquid chromatographic system and a Sciex LC-MS/MS API 4000 mass spectrometry). The lower limit of quantification for total plasma concentrations were 32.0 and 5.00 ng/ml from total for ORM-11372 and dobutamine, respectively. […]
The effects of dobutamine on blood pressure varies partially due to the use of racemate as active ingredient in the pharmaceutical formulation. (-)-dobutamine is α1-agonist and therefore causes increases in cardiac output and peripheral resistance. (+)-dobutamine acts via β1- and β2-adrenoceptors which leads to increase in heart rate and reduction in blood pressure 16.
Figure S20 Haemodynamics in healthy rats
Effects of ORM-11372 and dobutamine on haemodynamics in isoflurane anesthetized 10-12 weeks aged male Sprague-Dawley rats (Harlan, Netherlands B.V.) weighing 300-400 g. Shown are mean ± SEM and individual effects on the left ventricular contractility (LV+dP/dtmax, panel A), relaxation (LV-dP/dtmax, panel B), heart rate (panel C), and systolic arterial blood pressure (SAP, paned D). […]

[1] = 4 nM up to 92 nM free plasma concentration

Nc1cccc(-c2ccc(CNc3ccc(F)cc3)o2)c1 [ORM‐11372]
absolute maximum positive inotropic effect: 44%
free plasma concentration achieving 25% positive inotropic effect: 36 ± 1.4 nM
free plasma concentration at absolute maximum positive inotropic effect: 351 ± 92 nM
free plasma concentration at maximum inotropic effect without any other effects: 92 ± 8 nM
free plasma concentration at the 10±2% (ORM-11372) / 16±3% (dobutamine) inotropic effect: 4 ± 0.3 nM
left ventricular relaxation [1]: did not affect
systolic blood pressure [1]: did not affect
improvement of relaxation (tendency) (36 nM free plasma): 7.5±4.5%
effective free concentration range in rat plasma (Figure S20): 4 to 300 nM
maximum inotropic effect without any other effects (at 92±8 nM free plasma): 34±5%
positive inotropic effect (at free plasma concentration 4±0.3 nM (ORM-11372), 16±0.8 nM (dobutamine)): 10±2%
decrease in heart rate (free plasma concentrations higher than 240 nM): -7 to -12%
relaxation (high concentration (≥240 nM)): impaired relaxation
heart rate (up to 240 nM free plasma concentration): no effect
